Results taken from patent US20240391862A1, “(1,4,5-TRISUBSTITUTED-1H-PYRAZOL-3-YL)OXY-2-ALKOXY ALKYL ACIDS AND THEIR DERIVATIVES, THEIR SALTS AND THEIR USE AS HERBICIDAL AGENTS” (Bayer AKtiengesellschaft, priority 2021, published 2024).

Assays:
ORYSA [1] = assay: Post-emergence herbicidal effect and crop plant compatibility, greenhouse pot test; type: in vivo, Oryza sativa; conditions: 320 g/ha, one-leaf stage, rated visually after about 3 weeks vs untreated controls
In short: (§1)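 Greenhouse pot plants in sandy loam receive a one-leaf-stage spray at 20 to 320 g/ha. Activity is assessed visually around 3 weeks afterwards on a 0–100% scale, where 100% means the plants have died.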

SETVI [2] = assay: Pre-emergence herbicidal effect, greenhouse pot test; type: in vivo, Setaria viridis; conditions: Setaria viridis, 504 h, 320 g/ha, scored visually after about 3 weeks vs untreated controls, read-out: Pre-emergence effect at 320 g/ha against SETVI in %
Source text: (§2) Seeds of monocotyledonous and dicotyledonous weed plants and crop plants are placed in plastic or organic planting pots and covered with soil. The compounds of the invention, formulated in the form of wettable powders (WP) or as emulsion concentrates (EC), are then applied to the surface of the covering soil as aqueous suspension or emulsion with addition of 0.5% additive at a water application rate equivalent to 600 l/ha. After the treatment, the pots are placed in a greenhouse and kept under good growth conditions for the trial plants. After about 3 weeks, the effect of the preparations is scored visually in comparison with untreated controls as percentages. For example, 100% activity=the plants have died, 0% activity=like control plants.
(§3) Tables 1a to 19c below show the effects/crop compatibilities of selected compounds of the general formula (I) on various harmful plants at an application rate corresponding to 20 to 320 g/ha, which were obtained by the trial procedure specified above.
(§4) • ALOMY: Alopecurus myosuroides SETVI: Setaria viridis • AVEFA: Avena fatua POLCO: Fallopia convolvulus • AMARE: Amaranthus retroflexus ECHCG: Echinochloa crus-galli • LOLRJ: Lolium rigidum STEME: Stellaria media • VERPE: Veronica persica MATIN: Tripleurospermum inodorum • DIGSA: Digitaria sanguinalis ABUTH: Abutylon threophrasti • TRZAS: Triticum aestivum VIOTR: Viola tricolor • BRSNW: Brassica napus ZEAMX: Zea mays • PHBPU: Ipomoea purpurea GLXMA: Glycine max • ORYSA: Oryza sativa HORMU: Hordeum murinum

ZEAMX [3] = assay: Post-emergence herbicidal effect and crop plant compatibility, greenhouse pot test; type: in vivo, Zea mays; conditions: Zea mays, 504 h, 80 g/ha, one-leaf stage, rated visually after about 3 weeks vs untreated controls, read-out: Post-emergence effect at 80 g/ha against ZEAMX in %
In short: as §1

BRSNW = assay: Pre-emergence herbicidal effect and crop plant compatibility, greenhouse pot test; type: in vivo, Brassica napus; conditions: scored visually after about 3 weeks vs untreated controls
Source text: as §2, §3, §4

GLXMA = assay: as above; type: in vivo, Glycine max; conditions: scored visually after about 3 weeks vs untreated controls
Source text: as §2, §3, §4

ORYSA [4] = assay: as above; type: in vivo, Oryza sativa; conditions: scored visually after about 3 weeks vs untreated controls
Source text: as §2, §3, §4

SETVI [5] = assay: Post-emergence herbicidal effect, greenhouse pot test; type: in vivo, Setaria viridis; conditions: Setaria viridis, 504 h, 320 g/ha, read-out: Post-emergence effect against SETVI in %
In short: (§5)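 Sandy loam pots, greenhouse. One-leaf stage (2–3 wk after sowing) foliar spray; WP/EC in water + 0.5% additive, 600 l/ha; 20–320 g/ha. Visual score ~3 wk, 0–100% vs untreated.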

TRZAS = assay: Pre-emergence herbicidal effect and crop plant compatibility, greenhouse pot test; type: in vivo, Triticum aestivum; conditions: scored visually after about 3 weeks vs untreated controls
Source text: as §2, §3, §4

ZEAMX [6] = assay: as above; type: in vivo, Zea mays; conditions: scored visually after about 3 weeks vs untreated controls
Source text: as §2, §3, §4

AMARE = assay: Pre-emergence herbicidal effect, greenhouse pot test; type: in vivo, Amaranthus retroflexus; conditions: Amaranthus retroflexus, 504 h, 320 g/ha, scored visually after about 3 weeks vs untreated controls, read-out: Pre-emergence effect at 320 g/ha against AMARE in %
Source text: as §2, §3, §4

ECHCG = assay: Post-emergence herbicidal effect, greenhouse pot test; type: in vivo, Echinochloa crus-galli; conditions: Echinochloa crus-galli, 504 h, 320 g/ha, read-out: Post-emergence effect against ECHCG in %
In short: as §5

VERPE = assay: as above; type: in vivo, Veronica persica; conditions: Veronica persica, 504 h, 320 g/ha, read-out: Post-emergence effect against VERPE in %
In short: as §5

ALOMY = assay: as above; type: in vivo, Alopecurus myosuroides; conditions: Alopecurus myosuroides, 504 h, 320 g/ha, visual rating about 3 weeks after treatment, read-out: Post-emergence effect against ALOMY
In short: as §5

MATIN = assay: as above; type: in vivo, Tripleurospermum inodorum; conditions: Tripleurospermum inodorum, 504 h, 320 g/ha, read-out: Post-emergence effect against MATIN in %
In short: as §5

SMILES	Post-emergence effect at 320 g/ha against ORYSA in % (ORYSA [1])	pest or weed control at 320 g/ha (SETVI [2])	plant injury at 80 g/ha (ZEAMX [3])	Pre-emergence effect at 80 g/ha against BRSNW in % (BRSNW)	Pre-emergence effect at 320 g/ha against BRSNW in % (BRSNW; 320 g/ha)	Pre-emergence effect at 80 g/ha against GLXMA in % (GLXMA)	Pre-emergence effect at 320 g/ha against GLXMA in % (GLXMA; 320 g/ha)	Pre-emergence effect at 80 g/ha against ORYSA in % (ORYSA [4])	Pre-emergence effect at 320 g/ha against ORYSA in % (ORYSA [4])	pest or weed control at 320 g/ha (SETVI [5])	Pre-emergence effect at 320 g/ha against TRZAS in % (TRZAS)	Pre-emergence effect at 80 g/ha against ZEAMX in % (ZEAMX [6])	Pre-emergence effect at 320 g/ha against ZEAMX in % (ZEAMX [6])	pest or weed control at 320 g/ha (AMARE)	pest or weed control at 320 g/ha (ECHCG)	pest or weed control at 320 g/ha (VERPE)	Pre-emergence effect at 80 g/ha against TRZAS in % (TRZAS; 80 g/ha)	pest or weed control at 320 g/ha (ALOMY)	pest or weed control at 320 g/ha (MATIN)
CCOC(=O)C(OCC)Oc1nn(-c2ncccc2F)c(-c2ccc(Cl)cc2)c1Br (stereo not drawn) [Example I-02]	10%	80%	10%	0%	0%	0%	0%	0%	0%										
COC(=O)C(OC)Oc1nn(-c2ncccc2F)c(-c2ccc(Cl)cc2)c1Br (stereo not drawn) [Example I-03]	10%		20%	20%		20%		0%		80%	0%	20%	20%	80%	80%	90%			
CCOC(=O)C(OCC)Oc1nn(-c2ncccc2F)c(-c2ccc(F)cc2F)c1Br (stereo not drawn) [Example I-08]						0%		0%	0%	80%	0%	0%	10%		80%	80%	0%	90%	80%
